Reference: patent publication US9969697B2, “3,4-dihydroquinazoline derivative and combination comprising the same” (UNIVERSITY-INDUSTRY COOPERATION GROUP OF KYUNG HEE …, priority 2014, dated 2018)

Key:
[1] = tested on: A549 cell line (human lung cancer); assay: MTT cytotoxicity assay on cancer cells; type: cell-based; details: 48 hours after treatment
Experimental: A549 cell line (human lung cancer) and PANC-1 cell line (human pancreatic cancer) were obtained from Korean Cell Line Bank (KCLB). The cells were cultured in RPMI 1640 medium supplemented with 10% fetal bovine serum (FBS) being heated and inactivated, penicillin (100 units/ml) and streptomycin sulfate (100 units/ml) under the condition of 37° C. and 5% CO2.
In order to confirm the cytotoxicity of drugs, an MTT (3-(4,5-dimethylthiazol-2-yl)-2,5-diphenyltetrazolium bromide) assay was conducted as follows [See Armichael et al., Evaluation of a tetrazolium-based semiautomated colorimetric assay: assessment of chemisensitivity testing. Cancer Research, 47, pp. 944-946, 1987]. The MTT assay is based on the reduction of water-soluble MTT (tetrazolium salt, yellow) which can be absorbed in living cells to its water-insoluble formazan crystals (purple) by activity of oxidoreductase enzymes of mitochondria. That is, when the number of viable cells is more, the formation of formazan crystals increases and the value of absorbance becomes higher.
Each of the cultured cancer cells was inoculated in a 96-well plate (5×10^4 cells/well) and cultured in RPMI medium (100 μl) containing 5% FBS. In 48 hours after the treatment of drugs (200, 100, 50, 25, 12.5, 6.25, 3.125 μM), 20 μl of an MTT solution (5.0 mg/ml) was added to each well, followed by further incubation for 4 hours. The supernatant of the plate was collected, and formazan crystals formed by MTT in the cells were added in 200 μl of DMSO to dissolve the precipitate. The OD value was measured at 540 nm using microplate reader (Molecular Devices).

[2] = biological target: T1, α1G T-type calcium channel (Homo sapiens, UniProt O43497); assay: T-type calcium channel activity, whole-cell patch-clamp in HEK293 cells; type: cell-based; details: HEK293 cells expressing α1G T-type calcium channel; read-out: T-type calcium channel blocking effect (IC50: μM)
T1 construct: expressed in transfected cells
Experimental: The culture medium was replaced with a fresh medium every 3 to 4 days, and the cultured cells were subjected to sub-culture every week. […] The cells used for T-type calcium channel activity assay were cultured on a cover slip coated with poly-L-lysine (0.5 mg/mL) whenever sub-cultured, and their calcium channel activity was recorded 2 to 7 days after the cultivation. Current of the T-type calcium channel at a single cell level was measured according to an electrophysiological whole-cell patch-clamp method using EPC-9 amplifier (HEKA, Germany). At this time, a cell exterior solution [NaCl 140 mM, CaCl2 2 mM, and HEPES 10 mM (pH 7.4)] and a cell interior solution [KCl 130 mM, HEPES 10 mM, EGTA 11 mM, and MgATP 5 mM (pH 7.4)] were employed. Inward current caused by the T-type calcium channel activation which occurred when the cells were converted into a whole-cell recording mode by stabbing a microglass electrode having 3-4 MΩ resistance which was filled with the cell interior solution into a single cell and depolarized at −30 mV (50 ms duration period) every 10 s with fixing membrane potential to −100 mV was measured according to a T-type calcium Channel activity protocol activated at low voltage.

lung cancer cells (A549) [3] = assay: Cell cycle analysis by PI staining / flow cytometry, with combination index; type: cell-based, human; parameters: SubG1: unit not given here; details: A549, 48 hours
Experimental: To measure the inviability of cancer cells quantitatively, the cell cycle thereof was analyzed through flow cytometry as follows, in accordance with the method given in the document [See Kim, Y. H. et al., Expression of the murine homologue of the cell cycle control protein […] in T lymphocytes.
After adding ribonuclease (2.5 μg/ml) and propidium iodide (50 μg/ml) together with 500 μl of PBS, the cells were left for 30 minutes in the dark at room temperature, followed by analyzing cell cycle within 1 hour using FACScan flow cytometer (Becton Dickinson Co, Heidelberg, Germany).
(§1) Combination index (CI) mathematically expresses the cytotoxicity on cancer cells or growth inhibition of cancer cells through relative comparison after treating drugs alone or in a combination. The CI is the quantitative concept introduced by Paul Talalay and Ting-Chao Chou and was calculated using CalcuSyn software. The effect of combination treatment according to the values of CI was defined as follows.

[4] = tested on: pancreatic cancer cells (PANC-1); assay: as above; type: cell-based, human; details: PANC-1, 48 hours, Table 3
lung cancer cells (A549) [5] = assay: Annexin V-FITC/PI double staining assay (apoptosis), with combination index; type: cell-based, human; parameters: unit not given here
Experimental: Cell death include the event that phosphatidylserine translocated to the surface of cell membrane is bound to Annexin V-FITC to express fluorochromes. Cells were treated with drugs, harvested, washed with ice-cold PBS twice, and supplied with 100 μl of Annexin V binding buffer ([…] 4-(2-hydroxyethyl)piperazine-1-ethanesulfonic acid (HEPES)/NaOH, 140 mM NaCl, 2.5 mM CaCl2, pH 7.4). Thereto, 5 μl of FITC-conjugated Annexin V and PI (50 μg/ml) were added. The mixture was left for 30 minutes in the dark at room temperature, followed by analysis within 1 hour using FACScan flow cytometer (Becton Dickinson Co, Heidelberg, Germany).
as §1

T1 sequence (O43497 whole entry): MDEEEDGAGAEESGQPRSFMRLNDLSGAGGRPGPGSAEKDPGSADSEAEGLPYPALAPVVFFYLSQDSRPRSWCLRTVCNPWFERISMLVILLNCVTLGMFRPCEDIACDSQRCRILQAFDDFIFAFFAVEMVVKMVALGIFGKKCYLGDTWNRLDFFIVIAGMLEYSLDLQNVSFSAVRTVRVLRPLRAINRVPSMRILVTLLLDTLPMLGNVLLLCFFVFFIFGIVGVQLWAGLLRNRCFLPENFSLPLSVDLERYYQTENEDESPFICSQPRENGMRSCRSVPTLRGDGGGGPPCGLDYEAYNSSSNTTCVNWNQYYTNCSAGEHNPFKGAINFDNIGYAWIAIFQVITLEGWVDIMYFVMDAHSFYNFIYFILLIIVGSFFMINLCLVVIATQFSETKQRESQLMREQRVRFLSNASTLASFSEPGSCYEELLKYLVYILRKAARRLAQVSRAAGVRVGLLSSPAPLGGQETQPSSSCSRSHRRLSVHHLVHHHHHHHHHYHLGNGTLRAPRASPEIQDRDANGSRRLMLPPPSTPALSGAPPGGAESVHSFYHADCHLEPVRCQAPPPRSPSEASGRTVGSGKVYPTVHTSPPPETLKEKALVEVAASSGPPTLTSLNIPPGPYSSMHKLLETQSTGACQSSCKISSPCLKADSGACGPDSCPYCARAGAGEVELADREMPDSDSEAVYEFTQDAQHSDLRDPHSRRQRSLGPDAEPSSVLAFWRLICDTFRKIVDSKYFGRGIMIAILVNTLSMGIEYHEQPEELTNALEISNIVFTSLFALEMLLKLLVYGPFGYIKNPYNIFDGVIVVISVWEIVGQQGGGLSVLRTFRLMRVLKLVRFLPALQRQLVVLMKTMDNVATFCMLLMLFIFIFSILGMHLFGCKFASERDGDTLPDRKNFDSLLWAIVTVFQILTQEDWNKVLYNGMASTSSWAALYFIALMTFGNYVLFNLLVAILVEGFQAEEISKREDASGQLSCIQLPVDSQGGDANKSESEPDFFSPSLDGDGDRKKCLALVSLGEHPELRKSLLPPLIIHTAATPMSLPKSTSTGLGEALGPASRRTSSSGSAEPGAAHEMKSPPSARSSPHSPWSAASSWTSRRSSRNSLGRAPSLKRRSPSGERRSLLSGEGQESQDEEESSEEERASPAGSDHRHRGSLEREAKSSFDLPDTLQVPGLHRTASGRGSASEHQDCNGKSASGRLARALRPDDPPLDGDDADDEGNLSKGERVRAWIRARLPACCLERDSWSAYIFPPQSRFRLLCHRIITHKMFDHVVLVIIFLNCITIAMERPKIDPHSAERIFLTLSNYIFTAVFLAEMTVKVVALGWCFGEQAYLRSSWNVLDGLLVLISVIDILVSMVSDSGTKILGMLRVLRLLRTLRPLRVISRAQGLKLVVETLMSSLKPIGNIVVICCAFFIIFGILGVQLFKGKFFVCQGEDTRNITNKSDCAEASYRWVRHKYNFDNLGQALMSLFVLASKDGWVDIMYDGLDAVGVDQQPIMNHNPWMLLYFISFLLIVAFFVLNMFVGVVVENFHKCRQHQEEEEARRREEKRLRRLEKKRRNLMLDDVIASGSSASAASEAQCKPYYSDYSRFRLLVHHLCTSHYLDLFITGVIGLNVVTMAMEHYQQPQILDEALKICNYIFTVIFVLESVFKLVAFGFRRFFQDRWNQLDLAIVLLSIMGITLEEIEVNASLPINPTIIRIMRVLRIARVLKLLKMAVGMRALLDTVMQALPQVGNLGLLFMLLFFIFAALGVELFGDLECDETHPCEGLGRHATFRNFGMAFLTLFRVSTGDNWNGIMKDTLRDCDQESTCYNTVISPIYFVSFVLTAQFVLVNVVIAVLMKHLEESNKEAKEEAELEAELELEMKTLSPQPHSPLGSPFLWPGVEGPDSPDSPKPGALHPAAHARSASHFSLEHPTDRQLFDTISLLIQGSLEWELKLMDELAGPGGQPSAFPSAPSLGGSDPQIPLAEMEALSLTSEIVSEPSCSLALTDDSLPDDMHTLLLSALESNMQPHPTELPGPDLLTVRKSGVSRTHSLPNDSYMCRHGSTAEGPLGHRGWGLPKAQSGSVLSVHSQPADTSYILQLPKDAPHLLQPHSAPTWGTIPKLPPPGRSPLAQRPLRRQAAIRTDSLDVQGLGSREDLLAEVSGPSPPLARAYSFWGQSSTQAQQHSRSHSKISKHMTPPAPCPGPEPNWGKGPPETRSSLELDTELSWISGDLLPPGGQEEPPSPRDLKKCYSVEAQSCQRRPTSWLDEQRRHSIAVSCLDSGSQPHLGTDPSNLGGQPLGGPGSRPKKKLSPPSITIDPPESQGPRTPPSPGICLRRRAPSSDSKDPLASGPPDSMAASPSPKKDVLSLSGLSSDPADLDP

Question: `CN(C)C(=O)NCCCN(C)C1=Nc2ccccc2C(CC(=O)NCc2ccccc2)N1c1ccc(C2CCCCC2)cc1` (stereo not shown) [Compound I-1, 4-(N-benzylacetamido)-3-(4-cyclohexylphenyl)-2-[N—(N′,N′-dimethylureidopropyl)-N-methyl]amino-3,4-dihydroquinazoline] was tested. Which IC50 [1] did it give?
Answer: 12.2 µM

Question: What about the IC50 [2] of the same compound?
Answer: 0.39 ± 0.11 µM

Question: Which results are given for `Cc1ccc(NC(=O)c2ccc(CN3CCN(C)CC3)cc2)cc1Nc1nccc(-c2cccnc2)n1` [Imatinib]?
Answer: G0/G1 (lung cancer cells (A549) [3]; 100 μM, Table 5): 72.4; G2/M (lung cancer cells (A549) [3]; 100 μM, Table 5): 14.4; SubG1 (lung cancer cells (A549) [3]; 100 μM, Table 5): 2.9; G0/G1 (lung cancer cells (A549) [3]; 100 μM, Table 6): 72.4; G2/M (lung cancer cells (A549) [3]; 100 μM, Table 6): 14.4; SubG1 (lung cancer cells (A549) [3]; 100 μM, Table 6): 2.9

Question: `COc1ccc(CN(C(C)=O)C2c3ccccc3N=C(N(C)CCCNC(=O)N(C)C)N2c2ccc(C3CCCCC3)cc2)cc1` (stereo not shown) [Compound I-3, 4-[N-(4-methoxybenzyl)acetamido)-3-(4-cyclohexylphenyl)-2-[N—(N′,N′-dimethylureidopropyl)-N-methyl]amino-3,4-dihydroquinazoline] was tested. Which G0/G1 (lung cancer cells (A549) [3]; 10 μM, Table 6) did it give?
Answer: 76.8

Question: And the G2/M (lung cancer cells (A549) [3]; 10 μM, Table 6)?
Answer: 12.1

Question: And the S (lung cancer cells (A549) [3]; 10 μM, Table 6)?
Answer: 7.6

Question: And the SubG1 (lung cancer cells (A549) [3]; 10 μM, Table 6)?
Answer: 3.7

Question: For `COCC(=O)O[C@]1(CCN(C)CCCc2nc3ccccc3[nH]2)CCc2cc(F)ccc2[C@@H]1C(C)C` [Mibefradil], which IC50 [1] is on record?
Answer: 24.9 µM

Question: `N.N.[Cl][Pt][Cl]` [Cisplatin] was tested. Which G0/G1 ([4]; 30 μM) did it give?
Answer: 42

Question: What about the G2/M ([4]; 30 μM) of the same compound?
Answer: 29.4

Question: What about the S ([4]; 30 μM) of the same compound?
Answer: 9.4

Question: And the SubG1 ([4]; 30 μM)?
Answer: 9.3

Question: What about the G0/G1 (lung cancer cells (A549) [3]; 20 μM, Table 2) of the same compound?
Answer: 9.0

Question: And the G2/M (lung cancer cells (A549) [3]; 20 μM, Table 2)?
Answer: 67.5

Question: And the S (lung cancer cells (A549) [3]; 20 μM, Table 2)?
Answer: 13.1

Question: What about the SubG1 (lung cancer cells (A549) [3]; 20 μM, Table 2) of the same compound?
Answer: 10.5

Question: What about the G0/G1 (lung cancer cells (A549) [3]; 30 μM, Table 2) of the same compound?
Answer: 14.0

Question: And the G2/M (lung cancer cells (A549) [3]; 30 μM, Table 2)?
Answer: 52.9

Question: And the S (lung cancer cells (A549) [3]; 30 μM, Table 2)?
Answer: 15.8

Question: And the SubG1 (lung cancer cells (A549) [3]; 30 μM, Table 2)?
Answer: 17.0

Question: What does the source list for `COc1cccc2c1C(=O)c1c(O)c3c(c(O)c1C2=O)C[C@@](O)(C(=O)CO)C[C@@H]3O[C@H]1C[C@H](N)[C@H](O)[C@H](C)O1` [Doxorubicin]?
Answer: G0/G1 (lung cancer cells (A549) [3]; 10 μM, Table 5): 36.7; G2/M (lung cancer cells (A549) [3]; 10 μM, Table 5): 18.3; S (lung cancer cells (A549) [3]; 10 μM, Table 5): 11.9; SubG1 (lung cancer cells (A549) [3]; 10 μM, Table 5): 33.5; G0/G1 (lung cancer cells (A549) [3]; 10 μM, Table 6): 36.7; G2/M (lung cancer cells (A549) [3]; 10 μM, Table 6): 18.3; S (lung cancer cells (A549) [3]; 10 μM, Table 6): 11.9; SubG1 (lung cancer cells (A549) [3]; 10 μM, Table 6): 33.5

Question: Which results are given for `COc1cc2ncnc(Nc3ccc(F)c(Cl)c3)c2cc1OCCCN1CCOCC1` [Gefitinib]?
Answer: G0/G1 (lung cancer cells (A549) [3]; 40 μM, Table 5): 72.7; G2/M (lung cancer cells (A549) [3]; 40 μM, Table 5): 11.8; S (lung cancer cells (A549) [3]; 40 μM, Table 5): 4; SubG1 (lung cancer cells (A549) [3]; 40 μM, Table 5): 11.6; G0/G1 (lung cancer cells (A549) [3]; 40 μM, Table 6): 72.7; G2/M (lung cancer cells (A549) [3]; 40 μM, Table 6): 11.8; S (lung cancer cells (A549) [3]; 40 μM, Table 6): 4; SubG1 (lung cancer cells (A549) [3]; 40 μM, Table 6): 11.6

Question: `COc1cc([C@@H]2c3cc4c(cc3[C@@H](O[C@@H]3O[C@@H]5CO[C@@H](C)O[C@H]5[C@H](O)[C@H]3O)[C@H]3COC(=O)[C@H]23)OCO4)cc(OC)c1O` [Etoposide] was tested. Which “AV+/PI− (early apoptosis)” value (lung cancer cells (A549) [5]; A549, 50 μM) did it give?
Answer: 19.1

Question: What about the “Total AV+ (sum of early and late apoptosis)” value (lung cancer cells (A549) [5]; A549, 50 μM) of the same compound?
Answer: 31.68

Question: And the G0/G1 (lung cancer cells (A549) [3]; 50 μM, Table 4)?
Answer: 36.0

Question: What about the G2/M (lung cancer cells (A549) [3]; 50 μM, Table 4) of the same compound?
Answer: 18.9

Question: What about the S (lung cancer cells (A549) [3]; 50 μM, Table 4) of the same compound?
Answer: 12.3

Question: What about the SubG1 (lung cancer cells (A549) [3]; 50 μM, Table 4) of the same compound?
Answer: 33.0

Question: For `C#Cc1cccc(Nc2ncnc3cc(OCCOC)c(OCCOC)cc23)c1` [erlotinib, Erlotinib], which G0/G1 (lung cancer cells (A549) [3]; 150 μM, Table 5) is on record?
Answer: 70.6

Question: And the G2/M (lung cancer cells (A549) [3]; 150 μM, Table 5)?
Answer: 12.9

Question: What about the S (lung cancer cells (A549) [3]; 150 μM, Table 5) of the same compound?
Answer: 7.2

Question: What about the SubG1 (lung cancer cells (A549) [3]; 150 μM, Table 5) of the same compound?
Answer: 9.6

Question: What about the G0/G1 (lung cancer cells (A549) [3]; 300 μM, Table 6) of the same compound?
Answer: 27.7

Question: And the G2/M (lung cancer cells (A549) [3]; 300 μM, Table 6)?
Answer: 1.2

Question: And the S (lung cancer cells (A549) [3]; 300 μM, Table 6)?
Answer: 1

Question: What about the SubG1 (lung cancer cells (A549) [3]; 300 μM, Table 6) of the same compound?
Answer: 70.3

Question: Which results are given for `CN(C)C(=O)NCCCN(C)C1=Nc2ccccc2C(CC(=O)NCc2ccc(F)cc2)N1c1ccc(C2CCCCC2)cc1` (stereo not shown) [Compound I-2, 4-[N-(4-fluorobenzyl)acetamido]-3-(4-cyclohexylphenyl)-2-[N—(N′,N′-dimethylureidopropyl)-N-methyl]amino-3,4-dihydroquinazoline]?
Answer: G0/G1 ([4]; 2.5 μM): 44.7; G2/M ([4]; 2.5 μM): 35; S ([4]; 2.5 μM): 7.2; SubG1 ([4]; 2.5 μM): 2.5; AV+/PI− (early apoptosis) (lung cancer cells (A549) [5]; A549, 2.5 μM): 2.4; Total AV+ (sum of early and late apoptosis) (lung cancer cells (A549) [5]; A549, 2.5 μM): 6.08; AV+/PI− (early apoptosis) (lung cancer cells (A549) [5]; A549, 5 μM): 1.88; Total AV+ (sum of early and late apoptosis) (lung cancer cells (A549) [5]; A549, 5 μM): 4.78; AV+/PI− (early apoptosis) (lung cancer cells (A549) [5]; A549, 10 μM): 8.8; Total AV+ (sum of early and late apoptosis) (lung cancer cells (A549) [5]; A549, 10 μM): 13.14; G0/G1 (lung cancer cells (A549) [3]; 10 μM, Table 2): 79.1; G2/M (lung cancer cells (A549) [3]; 10 μM, Table 2): 10.9; S (lung cancer cells (A549) [3]; 10 μM, Table 2): 2.4; SubG1 (lung cancer cells (A549) [3]; 10 μM, Table 2): 7.6; G0/G1 (lung cancer cells (A549) [3]; 10 μM, Table 4): 77.4; G2/M (lung cancer cells (A549) [3]; 10 μM, Table 4): 13.3; S (lung cancer cells (A549) [3]; 10 μM, Table 4): 5.4; SubG1 (lung cancer cells (A549) [3]; 10 μM, Table 4): 4.0; G0/G1 (lung cancer cells (A549) [3]; 10 μM, Table 5): 76.8; G2/M (lung cancer cells (A549) [3]; 10 μM, Table 5): 12.1; S (lung cancer cells (A549) [3]; 10 μM, Table 5): 7.6; SubG1 (lung cancer cells (A549) [3]; 10 μM, Table 5): 3.7; IC50 [1]: 7.3 µM; IC50 [2]: 0.89 ± 0.06 µM
